Literature values, collected in patent US20240041762A1 (Zambon S.p.A., priority 2020, published 2024).

What was measured:
invasive aspergillosis = conditions: in vivo

| ELF exposure as fraction of the plasma concentration (healthy volunteers) | concentration in the alveolar cells with respect to the plasma concentration (healthy volunteers) | concentrations in bronchoalveolar lavage fluid and lung tissue, times lower than plasma (other cases) | Structure (SMILES) | activity against invasive aspergillosis (invasive aspergillosis) |
| --- | --- | --- | --- | --- |
|  |  |  | OC(Cn1cncn1)(Cn1cncn1)c1ccc(F)cc1F [Fluconazole] | not active |
| approximately ⅓ | more than double | 10 times | CCC(C)n1ncn(-c2ccc(N3CCN(c4ccc(OCC5COC(Cn6cncn6)(c6ccc(Cl)cc6Cl)O5)cc4)CC3)cc2)c1=O (stereo not shown) [itraconazole] |  |
